The source of these data is ChEMBL document CHEMBL4145509, “Unravelling the binding mechanism of benproperine with human serum albumin: A docking, fluorometric, and thermodynamic approach” (Eur J Med Chem, 2018).

Series [1] addresses T1, Albumin (Homo sapiens, UniProt P02768). Nature of the series: Binding affinity to human serum albumin by isothermal titration microcalorimetry. The format is ADME. To be noted: isolated protein. (ITC needs no label: the signal is the heat of the interaction.)
Series [2] has as its target T1, Albumin. Nature of the series: Induction of conformational changes in human serum albumin assessed as reduction in alpha-helical content at HSA:compound ratio of 1:2 by CD spectral analysis (reference value: 52.6%). Also on record: scale not given: the % may be the effect or the level left.
Series [3] addresses T1, Albumin. Nature of the series: Binding affinity to human serum albumin assessed as Stern-Volmer quenching constant after 1 hr at 25 degC by fluorescence spectroscopic analysis. Format: ADME. To be noted: isolated protein.
For series [4], the target named is T1, Albumin. Briefly: Binding affinity to human serum albumin assessed as fluorescence lifetime decay 3 at HSA:compound ratio of 1:2 after 1 hr by fluorescence spectroscopic analysis (reference value: 6.876 +/- 0.177 nanoseconds). To be noted: isolated protein. The format is ADME.
Series [5] concerns the target T1, Albumin. Nature of the series: Induction of conformational changes in human serum albumin assessed as reduction in alpha-helical content at HSA:compound ratio of 1:10 by CD spectral analysis (reference value: 52.6%). More on the design: scale not given: the % may be the effect or the level left.
Series [6] addresses T1, Albumin. Briefly: Binding affinity to human serum albumin assessed as binding constant after 1 hr at 37 degC by fluorescence spectroscopic analysis. The format is ADME. To be noted: isolated protein.
For series [7], the target named is T1, Albumin. Briefly: Binding affinity to human serum albumin assessed as Stern-Volmer quenching constant after 1 hr at 37 degC by fluorescence spectroscopic analysis. The format is ADME. To be noted: isolated protein.
Series [8] addresses T1, Albumin. Briefly: Binding affinity to human serum albumin assessed as fluorescence lifetime decay 1 at HSA:compound ratio of 1:2 after 1 hr by fluorescence spectroscopic analysis (reference value: 3.917 +/- 0.039 nanoseconds). The format is ADME. To be noted: isolated protein.
The target in series [9] is T1, Albumin. Nature of the series: Binding affinity to human serum albumin assessed as fluorescence lifetime decay 1 at HSA:compound ratio of 1:10 after 1 hr by fluorescence spectroscopic analysis (reference value: 3.917 +/- 0.039 nanoseconds). Format: ADME. To be noted: isolated protein.
For series [10], the target named is T1, Albumin. Briefly: Binding affinity to human serum albumin assessed as binding constant after 1 hr at 25 degC by fluorescence spectroscopic analysis. Format: ADME. To be noted: isolated protein.
Series [11] concerns the target T1, Albumin. Briefly: Binding affinity to human serum albumin assessed as fluorescence lifetime decay 2 at HSA:compound ratio of 1:2 after 1 hr by fluorescence spectroscopic analysis (reference value: 0.584 +/- 0.047 nanoseconds). The format is ADME. The conditions noted are these: isolated protein.
Series [12] addresses T1, Albumin. Nature of the series: Binding affinity to human serum albumin assessed as fluorescence lifetime decay 3 at HSA:compound ratio of 1:10 after 1 hr by fluorescence spectroscopic analysis (reference value: 6.876 +/- 0.177 nanoseconds). The conditions noted are these: isolated protein. Format: ADME.
The target of series [13] is T1, Albumin. Briefly: Binding affinity to human serum albumin assessed as fluorescence lifetime decay 2 at HSA:compound ratio of 1:10 after 1 hr by fluorescence spectroscopic analysis (reference value: 0.584 +/- 0.047 nanoseconds). To be noted: isolated protein. The format is ADME.

Molecules are shown by their SMILES.

T1 sequence (P02768 whole entry): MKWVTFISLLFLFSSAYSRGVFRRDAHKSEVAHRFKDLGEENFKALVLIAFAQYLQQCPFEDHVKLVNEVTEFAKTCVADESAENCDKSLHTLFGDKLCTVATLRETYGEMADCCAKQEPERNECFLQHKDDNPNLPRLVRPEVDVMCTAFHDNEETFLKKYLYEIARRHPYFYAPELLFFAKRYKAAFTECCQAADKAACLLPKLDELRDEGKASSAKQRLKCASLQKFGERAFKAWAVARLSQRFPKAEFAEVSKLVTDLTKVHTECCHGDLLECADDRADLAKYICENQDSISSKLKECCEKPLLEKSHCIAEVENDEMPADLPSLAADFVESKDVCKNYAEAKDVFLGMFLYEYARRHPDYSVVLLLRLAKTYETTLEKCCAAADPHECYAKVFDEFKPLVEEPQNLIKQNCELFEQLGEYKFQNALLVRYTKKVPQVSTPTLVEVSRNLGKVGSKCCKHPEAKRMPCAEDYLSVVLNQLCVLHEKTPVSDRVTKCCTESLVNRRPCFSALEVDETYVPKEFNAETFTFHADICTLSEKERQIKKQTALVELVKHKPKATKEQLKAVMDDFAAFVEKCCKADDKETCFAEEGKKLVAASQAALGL

For the compound `CC(COc1ccccc1Cc1ccccc1)N1CCCCC1` (stereo not drawn) [BENPROPERINE], the K on Albumin [1] is recorded as 1.97 ×10⁴ L/mol; on Albumin [6], 1.1 ×10⁴ L/mol; at Albumin [10], 2.01 ×10⁴ L/mol. The Activity was found to be 49.06% on Albumin [2] and 47.88% on Albumin [5]. Moreover, the KSV was determined as 2.74 ×10⁴ L/mol on Albumin [3] and 1.99 ×10⁴ L/mol on Albumin [7]. In addition, the Time is recorded as 6.858 nanoseconds at Albumin [4]; 3.852 nanoseconds at Albumin [8]; 3.699 nanoseconds on Albumin [9]; 0.515 nanoseconds at Albumin [11]; 6.84 nanoseconds at Albumin [12]; 0.488 nanoseconds on Albumin [13].
